The assay deals with A/duck/Ukraine/1/1963. It is filed as cell-based, avian influenza A virus.

SMILES strings stand for the structures.

Consider `CCC(CC)O[C@@H]1C=C(C(=O)O)C[C@H](N)[C@H]1NC(C)=O` [Oseltamivir carboxylate, oseltamivir carboxylate], for which the plaque formation result is recorded as “complete abrogation of plaque formation”. For the setting “Conc. 1 μM”, this molecule displayed a Plaque dia. of 0 mm and a Plaque qty. of 0.

For the origin of these results see article PMC6972948 (Scientific Reports, 2020).
